In PubChem BioAssay AID2060325 (Molecular Pharmacology Branch, DTP, NCI, 2025) one finds viability, T/C and IC50 data, which are given here for ten compounds.

As usually defined, the viability, T/C is the result in the treated group divided by that in the control group, in per cent. What is called IC50 is the concentration at which inhibition is half-maximal.

SMILES strings stand for the structures. “And” between values parts separate entries of the source, which are not always exact repeats. Equal entries are not always repeated.

The test deals with SK-OV-3 multi-cell spheroids, viability. Kind of test: Anticancer human tumor SK-OV-3 cell line growth inhibition [IpAb].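 As to viability, T/C: viability read after seven days of drug exposure; percent of DMSO vehicle control luminescence.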 The conditions noted are these: for viability, T/C: stronger effect = lower value; for IC50: curve of compound. From the text: Combinatorial screen of targeted agents with ipatasertib and abemaciclib in multi-cell type tumor spheroids
A high-throughput screen of multi-cell type tumor spheroids was designed to identify active combinations of targeted small molecules and ipatasertib or abemaciclib. Complex spheroids include a stromal component modeled by human endothelial cells (HUVEC) and fibroblasts modeled by human mesenchymal stem cells (MSCs). The concentration ranges selected for each drug and investigational agent were based upon clinically achievable concentrations if the clinical Cmax of the agent was known.
Compounds. The drugs and investigational agents: ipatasertib (NSC767898), abemaciclib(NSC768073), selumetinib (NSC741078), trametinib (758246), adavosertib (NSC754352), everolimus (NSC733504), sapanisertib (NSC764658), vemurafenib (NSC761431), venetoclax (NSC766270), copanlisib (NSC809693), apelisib (NSC765974), palbociblib (NSC758247), vemurafenib (NSC761431), dabrafenib (NSC764134), ravoxertinib (NSC781343), BMS-387032 (NSC767048), sotorasib (NSC818433), talazoparib (NSC767125) and afursertib (NSC778305), were obtained from the National Cancer Institute (NCI) Developmental Therapeutics Program Chemical Repository. The FDA-approved anticancer drug set is available from the NCI Developmental Therapeutics Program. […] The stock solutions were prepared in dimethyl sulfoxide (DMSO, Sigma-Aldrich, St. Louis, MO, cat. D2650) at 800-fold the tested concentration and stored at -70 degrees C prior to their use. All drugs and investigational agents were tested over a range starting from a high concentration at or near the clinical Cmax and decreasing in half-log increments. If the clinical Cmax for an agent had not been determined, the highest concentration tested was 10 microM.
NCI60 Cell Culture. NCI60 cell lines were obtained from the NCI Developmental Therapeutics Program Tumor Repository. For each lot of cells, the Repository performed Applied Biosystems AmpFLSTR Identifiler testing with PCR amplification to confirm consistency with the published Identifier STR profile for each cell line. Cells were kept in continuous culture for no more than 20 passages. The optimal seeding densities for each of the cell lines at each time point assessed were determined prior to performing the concentration response studies. Briefly, the NCI60 human tumor lines were grown as monolayers in RPMI 1640 medium supplemented with 10% FBS and 2 mmol/L L-glutamine.
An additional 9 lines were from the NCI60 cell line panel including MDA-MB-231 breast carcinoma, MDA-MB-468 breast carcinoma, MCF7 breast carcinoma, Hs578T breast carcinoma, MALME-3M melanoma, SK-MEL-2 melanoma, SK-OV-3 ovarian carcinoma, DU-145 prostate carcinoma, PC-3 prostate carcinoma, all cell lines along with major genetic alterations are listed on Table 2. Pooled donor human umbilical vein endothelial cells (HUVEC, Lonza, cat. CC-2519) and human mesenchymal stem cells (hMSC, Lonza, cat. PT-2501) were purchased from Lonza (Walkersville, MD).
PDMR cell lines were grown in complete medium (DC medium): Dulbecco's modified Eagle's medium (DMEM)/F12 supplemented with 5% fetal bovine serum (FBS), 2 mM L-glutamine, 100 U/mL penicillin and 100 µg/ml streptomycin, 0.4 µg/ml hydrocortisone, 10 ng/ml epidermal growth factor (EGF) recombinant human protein, 24 µg/mL adenine, and 0.1 mg/mL primocin. During culture from frozen stock vials, PDMR cells were cultured in the same medium containing 10 µM Y-27632 (see Table 3). The PDCs were cultured in complete DMEM/F12 media without 10 microM Y-27632 dihydrochloride for at least two passages prior to the screen. The pooled donor HUVEC and hMSC were cultured in endothelial cell growth medium 2 (PromoCell, Heidelberg, Germany, cat. C-22011) and mesenchymal stem cell growth medium 2 (PromoCell, cat. C-28009), respectively. For all experiments, HUVEC and hMSC were used at passages </=5.
[…]

As to `C=CCn1c(=O)c2cnc(Nc3ccc(N4CCN(C)CC4)cc3)nc2n1-c1cccc(C(C)(C)O)n1`, the IC50 was 139 nM and 128 nM. For the same compound, for the setting “compound 0.0316 µM”, the viability, T/C was 89.6% and 97.2%. Moreover, where the note is “compound 0.1 µM”, the viability, T/C was 64.6% and 59.2%. Further, the viability, T/C (compound 0.316 µM) was 13.3% and 15.5%. For the setting “compound 1 µM”, the viability, T/C was 8.1% and 7.49%. The viability, T/C (compound 3.16 µM) is 4.13% and 4.87%. In addition, the viability, T/C (compound 10 µM) is 6.98% and 5.63%.
With `CC(=O)c1c(C)c2cnc(Nc3ccc(N4CCNCC4)cn3)nc2n(C2CCCC2)c1=O`, the IC50 was > 300 nM and 253 nM. In addition, the viability, T/C (compound 0.000949 µM) is 95.2% and 104%. In addition, the viability, T/C (compound 0.003 µM) was 88.7% and 83.4%. The viability, T/C (compound 0.00949 µM) is 75.1% and 80.8%. For the same compound, for the setting “compound 0.03 µM”, the viability, T/C is 60.9% and 56.5%. Moreover, where the note is “compound 0.0949 µM”, the viability, T/C was 56.6% and 55%. Under “compound 0.3 µM”, the viability, T/C was 54.1% and 49.9%.
As for `CC(C)(C)c1cnc(CSc2cnc(NC(=O)C3CCNCC3)s2)o1`, the IC50 was 189 nM and 212 nM. Besides, the viability, T/C (compound 0.00949 µM) was 111% and 106%. In addition, the viability, T/C (compound 0.03 µM) is 119% and 113%. In addition, under “compound 0.0949 µM”, the viability, T/C is 120% and 117%. Further, where the note is “compound 0.3 µM”, the viability, T/C was 14.5% and 23.1%. Besides, for the setting “compound 0.949 µM”, the viability, T/C was 0.98% and 1.33%. The viability, T/C (compound 3 µM) is 0.95% and 1.2%.
In the case of `CC(C)n1nc(-c2ccc3oc(N)nc3c2)c2c(N)ncnc21`, the IC50 is 2.13 nM and 2.54 nM. Moreover, the viability, T/C (compound 0.000316 µM) is 90.3% and 86.6%. The viability, T/C (compound 0.001 µM) is 71.8% and 76.2%. Besides, the viability, T/C (compound 0.00316 µM) is 37.6% and 42.3%. Where the note is “compound 0.01 µM”, the viability, T/C is 19.2% and 21.4%. The viability, T/C (compound 0.0316 µM) was 10.8% and 11.2%. Further, the viability, T/C (compound 0.1 µM) is 7.02% and 7.25%.
Consider `CC1(C)CCC(CN2CCN(c3ccc(C(=O)NS(=O)(=O)c4ccc(NCC5CCOCC5)c([N+](=O)[O-])c4)c(Oc4cnc5[nH]ccc5c4)c3)CC2)=C(c2ccc(Cl)cc2)C1`, for which the IC50 was 4560 nM and 4020 nM. Also, for the setting “compound 0.0316 µM”, the viability, T/C was 108% and 100%. Further, the viability, T/C (compound 0.1 µM) is 105% and 103%. Also, the viability, T/C (compound 0.316 µM) was 104% and 112%. Moreover, the viability, T/C (compound 1 µM) is 96.4% and 94.5%. Further, the viability, T/C (compound 3.16 µM) was 61.8% and 62.1%. In addition, the viability, T/C (compound 10 µM) is 24.5% and 5.23%.
Take `CCCS(=O)(=O)Nc1ccc(F)c(C(=O)c2c[nH]c3ncc(-c4ccc(Cl)cc4)cc23)c1F`: the IC50 was 7130 nM and 9740 nM. For the setting “compound 0.0316 µM”, the viability, T/C was 116% and 100%. Moreover, the viability, T/C (compound 0.1 µM) was 101% and 100%. Besides, where the note is “compound 0.316 µM”, the viability, T/C was 108%. Under “compound 1 µM”, the viability, T/C was 102% and 108%. The viability, T/C (compound 3.16 µM) is 89.4% and 88.4%. Also, the viability, T/C (compound 10 µM) is 33.9% and 49.1%.
`CCN1CCN(Cc2ccc(Nc3ncc(F)c(-c4cc(F)c5nc(C)n(C(C)C)c5c4)n3)nc2)CC1`: the viability, T/C was 87.1% [middle of 13 runs] (compound 0.01 µM); 71.2% [middle of 13 runs] (compound 0.0316 µM); 54.8% [middle of 13 runs] (compound 0.1 µM); 53.6% [middle of 13 runs] (compound 0.316 µM); 43.7% [middle of 13 runs] (compound 1 µM).
With `COc1c(OCCCN2CCOCC2)ccc2c3n(c(=NC(=O)c4cnc(N)nc4)nc12)CCN3`, the IC50 was 8.71 nM and 9.06 nM. In addition, the viability, T/C (compound 0.00316 µM) is 92.7% and 89.1%. For the setting “compound 0.01 µM”, the viability, T/C is 44.2% and 46.4%. Under “compound 0.0316 µM”, the viability, T/C was 11.5% and 12.2%. Also, under “compound 0.1 µM”, the viability, T/C was 7.4% and 8.86%. The viability, T/C (compound 0.316 µM) is 6.39% and 5.98%. The viability, T/C (compound 1 µM) is 4.6% and 3.86%.
For the compound `Cn1cnc2c(F)c(Nc3ccc(Br)cc3Cl)c(C(=O)NOCCO)cc21`, the half-maximal inhibitory concentration (IC50) was 2100 nM and 1880 nM. Moreover, the viability, T/C (compound 0.00949 µM) was 96% and 97.7%. Where the note is “compound 0.03 µM”, the viability, T/C is 106% and 99.9%. In addition, under “compound 0.0949 µM”, the viability, T/C is 98% and 112%. For the same compound, the viability, T/C (compound 0.3 µM) was 104% and 108%. Besides, the viability, T/C (compound 0.949 µM) is 73.2% and 80.4%. Besides, the viability, T/C (compound 3 µM) was 39.5% and 29.2%.
Turning to `Cn1ncnc1[C@H]1c2n[nH]c(=O)c3cc(F)cc(c23)N[C@@H]1c1ccc(F)cc1`, the concentration for half-maximal inhibition (IC50) was over 100 nM. Further, where the note is “compound 0.000316 µM”, the viability, T/C was 108% and 97.8%. The viability, T/C (compound 0.001 µM) is 101% and 102%. Where the note is “compound 0.00316 µM”, the viability, T/C is 101% and 98.3%. Further, the viability, T/C (compound 0.01 µM) is 98.5% and 88.4%. Also, under “compound 0.0316 µM”, the viability, T/C is 87.8% and 86.8%. Moreover, the viability, T/C (compound 0.1 µM) is 73.5% and 68.5%.
